Test results reported in paper PMC7867015, “New Antiproliferative Triflavanone from Thymelaea hirsuta—Isolation, Structure Elucidation and Molecular Docking Studies” (Molecules, 2021).
pIC50: −log10 of the molar value.

Assays:
Type in all cases: cell-based
[1] = SRB cytotoxicity assay, HepG2 cells; details: human, read-out: In vitro cytotoxic effect IC50, HepG2
Procedure: (§1) The cell lines used in this study were purchased from the National Cancer Institute, Cairo, Egypt and maintained in Dulbecco’s Modified Eagle Medium/F-12 (DMEM⁄F12, Sigma-Aldrich, USA), supplemented with 2 mM L-glutamine (Lonza, Belgium) and 10% fetal bovine serum (FBS, Sigma-Aldrich, MO, USA), 1% penicillin-streptomycin (Lonza, Belgium). All cells were cultured following routine tissue culture work, and treated with serial concentrations of the compounds for 48 h. Absorbance was subsequently measured (at 570 nm) using ELISA microplate reader (BIO-RAD, model iMark, Japan). The viability was calculated relative to a control and the IC50 values were determined using the non-linear regression curve fit, as previously reported in [44]
(§2) The cytotoxic activities of the isolated compounds against HepG2, VERO E6, MCF-7 and HCT-116 cells were tested using the sulforhodamine-B (SRB) assay and the results are represented in figure e and Table 2.

HCT-116 cells = assay: SRB cytotoxicity assay, HCT-116 cells; details: Homo sapiens, 48 h, read-out: IC50 against HCT-116 cells
Procedure: as §1, §2

BCL2 = assay: ELISA assay for anti-apoptotic marker BCL2 in MCF-7 cells; details: 4.26 μM, 48 h, control 7.59 ng/mL
Source text: (§3) To further investigate the apoptotic pathway of compound 1 in both untreated and treated MCF-7 cells, we investigated the enzymatic assays for apoptotic markers BAX (EIA-4487, DRG International®, Springfield, NJ, USA) and caspase-9 (EIA-4860, DRG International®, USA) as proapoptotic genes and BCL2 (Cat. No. 99-0042, Zymed®, CA, USA) as the anti-apoptotic gene, following the manufacturer’s instructions.

MCF-7 cells [2] = assay: Annexin V/PI staining, flow cytometry (apoptosis); details: 48 h
Procedure: (§4) Apoptosis rate in cells was quantified using annexin V-FITC (BD Pharmingen, San Diego, CA, USA). MCF-7 cells were seeded into 6-well culture plates (3–5 × 10^5 cells/well) and incubated overnight. The cells were then treated with compound 1 for 48 h. Next, media supernatants and cells were collected and rinsed with ice-cold PBS. The next step was suspending the cells in 100 µL of annexin binding buffer solution 25 mM CaCl2, 1.4 M NaCl, and 0.1 M Hepes/NaOH, pH 7.4 and incubation with annexin V-FITC solution (1:100) and propidium iodide (PI) at a concentration of 10 µg/mL in the dark for 30 min. Stained cells were then acquired by a Cytoflex FACS machine. Data were analyzed using cytExpert software v.2.3.

MCF-7 cells [3] = assay: SRB cytotoxicity assay, MCF-7 cells; details: Homo sapiens, MCF7, 48 h, read-out: IC50 against MCF-7 cells
Procedure: as §1, §2

MCF-7 cells [4] = assay: DNA content flow cytometry cell cycle analysis; details: 4.26 μM, 48 h
Procedure: Cell cycle analysis is an important test that determines the percentages of the cell population that are in each cell phase.. In this studyMCF-7 cancer cells were treated with compound 1, and then subjected to DNA flow cytometry to determine the stage where cell proliferation was arrested in the cell cycle.
as §4

caspase-9 = assay: ELISA assay for apoptotic marker caspase-9 in MCF-7 cells; details: 4.26 μM, 48 h, control 5.16 pg/mL
Source text: as §3

[5] = SRB cytotoxicity assay, Vero normal cells; details: African green monkey, Vero E6 cells (normal cells), read-out: In vitro cytotoxic effect IC50, Vero
Procedure: as §1, §2

Vero cells = assay: SRB cytotoxicity assay, Vero normal cells; details: 48 h, read-out: In vitro cytotoxic effect IC50, Vero
Procedure: as §1, §2

BAX = assay: ELISA assay for apoptotic marker BAX in MCF-7 cells; details: 4.26 μM, 48 h, control 43.6 pg/mL
Source text: as §3

Compound | IC50 at 48 h [1] | pIC50 (HCT-116 cells) | pIC50 (MCF-7 cells [3]) | IC50 at 48 h [5] | also measured
O=C1c2c(O)cc(O)cc2OC(c2ccc(O)cc2)C1Oc1ccc(C2Oc3cc(O)cc(O)c3C(=O)C2C2C(=O)c3c(O)cc(O)cc3OC2c2ccc(O)cc2)cc1 (centres unmarked) [Compound 1, 2-(4-((5,7-dihydroxy-2-(4-hydroxyphenyl)-4-oxochroman-3-yl)oxy)phenyl)-5,5′,7,7′-tetrahydroxy-2′-(4 hydroxyphenyl)-[3,3′-bichromane]-4,4′-dione] | 8.6 µM | 5.02 | 5.37 | > 50 µM | BCL2 level (BCL2): 2.85 ng/mL; apoptotic cell death increase (MCF-7 cells [2]; MCF-7 cells treated at IC50 = 4.26 μM, versus untreated control): 14.97 fold; Apoptosis Late (MCF-7 cells [2]; MCF-7 cells, 4.26 μM, control 0.23%): 22.52%; Apoptosis Early (MCF-7 cells [2]; MCF-7 cells, 4.26 μM, control 0.61%): 2.44%; Apoptosis Total (apoptosis ratio) (MCF-7 cells [2]; MCF-7 cells, 4.26 μM, control 2.71%): 40.57%; Pre-G1 cell population (MCF-7 cells [4]; control 2.71%): 40.57%; change in cell population in G0/G1, S or G2/M phase (MCF-7 cells [4]; versus control): no significant change; caspase-9 level (caspase-9): 21.14 pg/mL; pIC50 (Vero cells): 4.25; BAX level (BAX): 362 pg/mL
COc1cc2cc(Oc3ccc4ccc(=O)oc4c3)c(=O)oc2cc1OC [Compound 2, daphnoretin methyl ether] | 12.3 µM | 4.00 | 4.18 | – | –
COc1cc2oc(=O)c(Oc3ccc4ccc(=O)oc4c3)cc2cc1O [Compound 3, rutamontine] | 29.8 µM | – | – | > 142 µM | –
COc1cc2cc(O)c(=O)oc2cc1Oc1ccc2ccc(=O)oc2c1 [Compound 4, neodaphnoretin] | 27.2 µM | – | – | 124 µM | –
COc1cc2cc(Oc3ccc4ccc(=O)oc4c3)c(=O)oc2cc1OC(C)=O [Compound 5, acetyldaphnoretin] | 9.4 µM | 4.61 | 4.33 | – | –
O=c1ccc2ccc(Oc3cc4cc(O)c(O)cc4oc3=O)cc2o1 [Compound 6, edgeworthin] | 32.5 µM | – | – | > 148 µM | –
O=C(C=Cc1ccc(O)cc1)OCC1OC(Oc2c(-c3ccc(O)cc3)oc3cc(O)cc(O)c3c2=O)C(O)C(O)C1O (stereo not drawn) [Compound 8, trans-tiliroside] | 15.1 µM | – | – | 50.5 µM | –
O=C(O)c1ccc(O)cc1 [Compound 9, p-hydroxy benzoic acid] | 32.6 µM | – | – | 203 µM | –
COc1cccc2c1C(=O)c1c(O)c3c(c(O)c1C2=O)C[C@@](O)(C(=O)CO)C[C@@H]3O[C@H]1C[C@H](N)[C@H](O)[C@H](C)O1 [Doxo, Doxorubicin, reference compound] | 7.7 µM | – | – | 45.8 µM | –
